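Following 48 hours of exposure in 96-well plates, responses at five concentrations were used to interpolate endpoints linearly. GI50 is the concentration that inhibits growth by half.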 Activity calls are given as the source filed them. No stated cut-off is given here; in the data, active = GI50 up to about 1.1 µM and inactive = higher.
Assays:
Assay in all cases: DTP human tumour cell line panel, 48 h
[1] = tested on: 786-0
[2] = tested on: A549
[3] = tested on: ACHN
[4] = tested on: COLO 205
[5] = tested on: DU-145
[6] = tested on: EKVX
[7] = tested on: HCT-15
[8] = tested on: HOP-62
[9] = tested on: HOP-92
[10] = tested on: HT-29
[11] = tested on: Hs-578T
[12] = tested on: IGROV-1
[13] = tested on: LOX IMVI
[14] = tested on: M14
[15] = tested on: MDA-MB-231
[16] = tested on: MDA-N
[17] = tested on: MOLT-4
[18] = tested on: Malme-3M
[19] = tested on: NCI-H460
[20] = tested on: NCI-H522
[21] = tested on: NCI/ADR-RES
[22] = tested on: OVCAR-3
[23] = tested on: OVCAR-4
[24] = tested on: OVCAR-8
[25] = tested on: PC-3
[26] = tested on: SF-268
[27] = tested on: SF-295
[28] = tested on: SK-MEL-2
[29] = tested on: SK-MEL-5
[30] = tested on: SK-OV-3
[31] = tested on: SN12C
[32] = tested on: SNB-75
[33] = tested on: SR
[34] = tested on: SW-620
[35] = tested on: T47D
[36] = tested on: UACC-257
[37] = tested on: UACC-62
[38] = tested on: HCC 2998
[39] = tested on: HCT-116
[40] = tested on: K562
[41] = tested on: KM12
[42] = tested on: MCF7
[43] = tested on: MDA-MB-435
[44] = tested on: NCI-H226
[45] = tested on: NCI-H23
[46] = tested on: OVCAR-5
[47] = tested on: RPMI-8226
[48] = tested on: SF-539
[49] = tested on: SK-MEL-28
[50] = tested on: SNB-19
[51] = tested on: TK-10
[52] = tested on: U-251
[53] = tested on: UO-31

In the case of `COc1cc(/C=C2\CN(C)CC3=C2N=C(S)NC3c2cc(OC)c(OC)c(OC)c2)cc(OC)c1OC` (stereo unspecified), the GI50 [1] is reported as 39.2 µM (inactive), the GI50 [2] is reported as 49.9 µM (inactive) and the GI50 [3] is reported as 91.2 µM (inactive). For the same compound, the GI50 [4] was 79.8 µM (inactive), the GI50 [5] was > 100 µM (inactive) and the GI50 [6] was 32.6 µM (inactive). For the same compound, the GI50 [7] was 80.2 µM, the GI50 [8] was 69.7 µM (inactive) and the GI50 [9] was > 100 µM (inactive). The GI50 [10] was 67.9 µM (inactive), the GI50 [11] was 30.5 µM (inactive) and the GI50 [12] was 71.8 µM (inactive). For the same compound, the GI50 [13] was 36.2 µM (inactive), the GI50 [14] was 51.2 µM (inactive) and the GI50 [15] was 61.9 µM (inactive). For the same compound, the GI50 [16] was 50.2 µM (inactive), the GI50 [17] was 57.4 µM (inactive) and the GI50 [18] was > 100 µM (inactive). The GI50 [19] was 54.5 µM (inactive), the GI50 [20] was 54.7 µM (inactive) and the GI50 [21] was > 100 µM (inactive). For the same compound, the GI50 [22] was > 100 µM (inactive), the GI50 [23] was 56 µM (inactive) and the GI50 [24] was 83.2 µM (inactive). For the same compound, the GI50 [25] was 38.3 µM (inactive), the GI50 [26] was 94.4 µM (inactive) and the GI50 [27] was 65.5 µM (inactive). For the same compound, the GI50 [28] was > 100 µM (inactive), the GI50 [29] was 17.9 µM (inactive) and the GI50 [30] was > 100 µM (inactive). The GI50 [31] was 67.9 µM (inactive), the GI50 [32] was 28.6 µM (inactive) and the GI50 [33] was > 100 µM (inactive). For the same compound, the GI50 [34] was > 100 µM (inactive), the GI50 [35] was > 100 µM (inactive) and the GI50 [36] was > 100 µM (inactive). The GI50 [37] was 20.9 µM (inactive).
For `CC1(C)C(=S)C(C)(C)C1=S`, the GI50 [1] was > 100 µM (inactive), the GI50 [2] was > 100 µM (inactive) and the GI50 [3] was > 100 µM (inactive). For the same compound, the GI50 [4] was > 100 µM (inactive), the GI50 [5] was > 100 µM (inactive) and the GI50 [6] was > 100 µM (inactive). The GI50 [38] was > 100 µM (inactive), the GI50 [39] was > 100 µM (inactive) and the GI50 [7] was > 100 µM. The GI50 [8] was > 100 µM (inactive), the GI50 [10] was > 100 µM (inactive) and the GI50 [11] was > 100 µM (inactive). For the same compound, the GI50 [12] was > 100 µM (inactive), the GI50 [40] was > 100 µM (inactive) and the GI50 [41] was > 100 µM (inactive). For the same compound, the GI50 [13] was > 100 µM (inactive), the GI50 [14] was > 100 µM (inactive) and the GI50 [42] was > 100 µM (inactive). For the same compound, the GI50 [15] was > 100 µM (inactive), the GI50 [43] was > 100 µM (inactive) and the GI50 [16] was > 100 µM (inactive). For the same compound, the GI50 [17] was > 100 µM (inactive), the GI50 [18] was > 100 µM (inactive) and the GI50 [44] was > 100 µM (inactive). The GI50 [45] was > 100 µM (inactive), the GI50 [19] was > 100 µM (inactive) and the GI50 [21] was > 100 µM (inactive). For the same compound, the GI50 [22] was > 100 µM (inactive), the GI50 [23] was > 100 µM (inactive) and the GI50 [46] was > 100 µM (inactive). For the same compound, the GI50 [25] was > 100 µM (inactive), the GI50 [47] was > 100 µM (inactive) and the GI50 [26] was > 100 µM (inactive). The GI50 [48] was > 100 µM (inactive), the GI50 [49] was > 100 µM (inactive) and the GI50 [28] was > 100 µM (inactive). The GI50 [29] was > 100 µM (inactive), the GI50 [30] was > 100 µM (inactive) and the GI50 [31] was > 100 µM (inactive). For the same compound, the GI50 [50] was > 100 µM (inactive), the GI50 [32] was > 100 µM (inactive) and the GI50 [33] was > 100 µM (inactive). For the same compound, the GI50 [34] was > 100 µM (inactive), the GI50 [35] was > 100 µM (inactive) and the GI50 [51] was > 100 µM (inactive). The GI50 [52] was > 100 µM (inactive), the GI50 [36] was > 100 µM (inactive) and the GI50 [37] was > 100 µM (inactive). For the same compound, the GI50 [53] was > 100 µM (inactive).
